Active and inactive are the calls of the source. The rule behind the calls is not given here.
Tests used:
[1] = Cytotoxicity against human HL-60 cells by resazurin dye based fluorescence assay; type: cell-based
[2] = Selectivity index, ratio of GI50 for human HL-60 cells to GI50 for antitrypanosomal activity against Trypanosoma brucei brucei S427; type: toxicity; conditions: read-out: RatioGI50
[3] = tested on: Trypanosoma brucei brucei; assay: Antitrypanosomal activity against Trypanosoma brucei brucei S427 by resazurin dye based fluorescence assay; type: functional
[4] = tested on: Trypanosoma brucei brucei; assay: Antitrypanosomal activity against Trypanosoma brucei brucei assessed as cell swelling; type: functional, organism-based

SMILES	GI50 [1] [µM]	selectivity ratio [2]	GI50 [3] [µM]	Activity [4]
CCNC(=O)N(CC)C(=O)O[C@H]1C=C[C@]2(O[C@H]([C@@H](CC)C(=O)[C@@H](C)[C@@H](O)[C@H](C)[C@@H]3O[C@@H]([C@@H](CC)C(=O)O)CC[C@@H]3C)[C@@H](C)C[C@H]2C)O[C@@]12CC[C@@](C)([C@H]1CC[C@](O)(CC)[C@H](C)O1)O2	9.54	353	0.027	Active
C#CCNC(=O)[C@H](CC)[C@H]1CC[C@H](C)[C@H]([C@@H](C)[C@H](O)[C@H](C)C(=O)[C@H](CC)[C@H]2O[C@]3(C=C[C@H](OC(C)=O)[C@]4(CC[C@@](C)([C@H]5CC[C@](O)(CC)[C@H](C)O5)O4)O3)[C@H](C)C[C@@H]2C)O1	39.8	2	20.9	–
C#CCOC(=O)[C@H](CC)[C@H]1CC[C@H](C)[C@H]([C@@H](C)[C@H](O)[C@H](C)C(=O)[C@H](CC)[C@H]2O[C@]3(C=C[C@H](OC(=O)OCC)[C@]4(CC[C@@](C)([C@H]5CC[C@](O)(CC)[C@H](C)O5)O4)O3)[C@H](C)C[C@@H]2C)O1	> 100	> 312	15	–
CC[C@@H](C(=O)[C@@H](C)[C@@H](O)[C@H](C)[C@@H]1O[C@@H]([C@@H](CC)C(=O)ONC(=O)c2ccccc2)CC[C@@H]1C)[C@H]1O[C@]2(C=C[C@H](OC(C)=O)[C@]3(CC[C@@](C)([C@H]4CC[C@](O)(CC)[C@H](C)O4)O3)O2)[C@H](C)C[C@@H]1C	19.1	18.2	0.47	–
CC[C@@H](C(=O)[C@@H](C)[C@@H](O)[C@H](C)[C@@H]1O[C@@H]([C@@H](CC)C(=O)O)CC[C@@H]1C)[C@H]1O[C@]2(C=C[C@H](OC(=O)NC(C)(C)C)[C@]3(CC[C@@](C)([C@H]4CC[C@](O)(CC)[C@H](C)O4)O3)O2)[C@H](C)C[C@@H]1C	> 100	> 312	0.32	–
CC[C@@H](C(=O)[C@@H](C)[C@@H](O)[C@H](C)[C@@H]1O[C@@H]([C@@H](CC)C(=O)O)CC[C@@H]1C)[C@H]1O[C@]2(C=C[C@H](OC(=O)C(C)C)[C@]3(CC[C@@](C)([C@H]4CC[C@](O)(CC)[C@H](C)O4)O3)O2)[C@H](C)C[C@@H]1C	21.6	90	0.036	–
C#CCOC(=O)[C@H](CC)[C@H]1CC[C@H](C)[C@H]([C@@H](C)[C@H](O)[C@H](C)C(=O)[C@H](CC)[C@H]2O[C@]3(C=C[C@H](O)[C@]4(CC[C@@](C)([C@H]5CC[C@](O)(CC)[C@H](C)O5)O4)O3)[C@H](C)C[C@@H]2C)O1	> 100	> 3.7	26.9	–
CC[C@@H](C(=O)[C@@H](C)[C@@H](O)[C@H](C)[C@@H]1O[C@@H]([C@@H](CC)C(=O)O)CC[C@@H]1C)[C@H]1O[C@]2(C=C[C@H](OC(=O)Oc3ccccc3)[C@]3(CC[C@@](C)([C@H]4CC[C@](O)(CC)[C@H](C)O4)O3)O2)[C@H](C)C[C@@H]1C	23.4	106	0.22	–
CC[C@@H](C(=O)[C@@H](C)[C@@H](O)[C@H](C)[C@@H]1O[C@@H]([C@@H](CC)C(=O)ONC(=O)c2ccccc2)CC[C@@H]1C)[C@H]1O[C@]2(C=C[C@H](O)[C@]3(CC[C@@](C)([C@H]4CC[C@](O)(CC)[C@H](C)O4)O3)O2)[C@H](C)C[C@@H]1C	9.54	29.8	0.32	–
CC[C@@H](C(=O)[C@@H](C)[C@@H](O)[C@H](C)[C@@H]1O[C@@H]([C@@H](CC)C(=O)O)CC[C@@H]1C)[C@H]1O[C@]2(C=C[C@H](OC(C)=O)[C@]3(CC[C@@](C)([C@H]4CC[C@](O)(CC)[C@H](C)O4)O3)O2)[C@H](C)C[C@@H]1C	52.5	21.2	0.043	–
CC[C@@H](C(=O)[C@@H](C)[C@@H](O)[C@H](C)[C@@H]1O[C@@H]([C@@H](CC)C(=O)O)CC[C@@H]1C)[C@H]1O[C@]2(C=C[C@H](OC(=O)c3ccccc3)[C@]3(CC[C@@](C)([C@H]4CC[C@](O)(CC)[C@H](C)O4)O3)O2)[C@H](C)C[C@@H]1C	13.5	67.5	0.34	–
CC[C@@H](C(=O)[C@@H](C)[C@@H](O)[C@H](C)[C@@H]1O[C@@H]([C@@H](CC)C(=O)ONC(=O)c2ccccc2O)CC[C@@H]1C)[C@H]1O[C@]2(C=C[C@H](O)[C@]3(CC[C@@](C)([C@H]4CC[C@](O)(CC)[C@H](C)O4)O3)O2)[C@H](C)C[C@@H]1C	33.2	11.8	2.81	–
CC[C@@H](C(=O)[C@@H](C)[C@@H](O)[C@H](C)[C@@H]1O[C@@H]([C@@H](CC)C(=O)ONC(=O)c2ccccc2O)CC[C@@H]1C)[C@H]1O[C@]2(C=C[C@H](OC(C)=O)[C@]3(CC[C@@](C)([C@H]4CC[C@](O)(CC)[C@H](C)O4)O3)O2)[C@H](C)C[C@@H]1C	203	353	0.59	–
CC[C@@H](C(=O)[C@@H](C)[C@@H](O)[C@H](C)[C@@H]1O[C@@H]([C@@H](CC)C(=O)O)CC[C@@H]1C)[C@H]1O[C@]2(C=C[C@H](OC(=O)OCC(C)(C)C)[C@]3(CC[C@@](C)([C@H]4CC[C@](O)(CC)[C@H](C)O4)O3)O2)[C@H](C)C[C@@H]1C	42.4	2	21.6	–
Cc1ccc(C(=O)Nc2ccc(S(=O)(=O)O)c3cc(S(=O)(=O)O)cc(S(=O)(=O)O)c23)cc1NC(=O)c1cccc(NC(=O)Nc2cccc(C(=O)Nc3cc(C(=O)Nc4ccc(S(=O)(=O)O)c5cc(S(=O)(=O)O)cc(S(=O)(=O)O)c45)ccc3C)c2)c1 [SURAMIN]	> 100	> 1720	0.058	–
CCOC(=O)O[C@H]1C=C[C@]2(O[C@H]([C@@H](CC)C(=O)[C@@H](C)[C@@H](O)[C@H](C)[C@@H]3O[C@@H]([C@@H](CC)C(=O)O)CC[C@@H]3C)[C@@H](C)C[C@H]2C)O[C@@]12CC[C@@](C)([C@H]1CC[C@](O)(CC)[C@H](C)O1)O2	12.6	293	0.2	Active
CC[C@@H](C(=O)[C@@H](C)[C@@H](O)[C@H](C)[C@@H]1O[C@@H]([C@@H](CC)C(=O)O)CC[C@@H]1C)[C@H]1O[C@]2(C=C[C@@H](O)[C@]3(CC[C@@](C)([C@H]4CC[C@](O)(CC)[C@H](C)O4)O3)O2)[C@H](C)C[C@@H]1C [SALINOMYCIN]	50.5	168	0.3	Active
C#CCOC(=O)[C@H](CC)[C@H]1CC[C@H](C)[C@H]([C@@H](C)[C@H](O)[C@H](C)C(=O)[C@H](CC)[C@H]2O[C@]3(C=C[C@H](OC(C)=O)[C@]4(CC[C@@](C)([C@H]5CC[C@](O)(CC)[C@H](C)O5)O4)O3)[C@H](C)C[C@@H]2C)O1	> 100	123	22.4	–
CC[C@@H](C(=O)[C@@H](C)[C@@H](O)[C@H](C)[C@@H]1O[C@@H]([C@@H](CC)C(=O)O)CC[C@@H]1C)[C@H]1O[C@]2(C=C[C@H](O)[C@]3(CC[C@@](C)([C@H]4CC[C@](O)(CC)[C@H](C)O4)O3)O2)[C@H](C)C[C@@H]1C	393	4.6	8.49	inactive
CCCCCCCCNC(=O)O[C@H]1C=C[C@]2(O[C@H]([C@@H](CC)C(=O)[C@@H](C)[C@@H](O)[C@H](C)[C@@H]3O[C@@H]([C@@H](CC)C(=O)O)CC[C@@H]3C)[C@@H](C)C[C@H]2C)O[C@@]12CC[C@@](C)([C@H]1CC[C@](O)(CC)[C@H](C)O1)O2	24.6	123	0.2	–
C#CCNC(=O)[C@H](CC)[C@H]1CC[C@H](C)[C@H]([C@@H](C)[C@H](O)[C@H](C)C(=O)[C@H](CC)[C@H]2O[C@]3(C=C[C@H](O)[C@]4(CC[C@@](C)([C@H]5CC[C@](O)(CC)[C@H](C)O5)O4)O3)[C@H](C)C[C@@H]2C)O1	44.8	15.1	2.97	–
CC[C@@H](C(=O)[C@@H](C)[C@@H](O)[C@H](C)[C@@H]1O[C@@H]([C@@H](CC)C(=O)O)CC[C@@H]1C)[C@H]1O[C@]2(C=C[C@H](OC(=O)Nc3ccccc3)[C@]3(CC[C@@](C)([C@H]4CC[C@](O)(CC)[C@H](C)O4)O3)O2)[C@H](C)C[C@@H]1C	57.2	18.2	3.15	–
C#CCNC(=O)[C@H](CC)[C@H]1CC[C@H](C)[C@H]([C@@H](C)[C@H](O)[C@H](C)C(=O)[C@H](CC)[C@H]2O[C@]3(C=C[C@H](OC(=O)OCC)[C@]4(CC[C@@](C)([C@H]5CC[C@](O)(CC)[C@H](C)O5)O4)O3)[C@H](C)C[C@@H]2C)O1	61.8	106	13.8	–
CC[C@@H](C(=O)[C@@H](C)[C@@H](O)[C@H](C)[C@@H]1O[C@@H]([C@@H](CC)C(=O)O)CC[C@@H]1C)[C@H]1O[C@]2(C=C[C@H](OC(=O)C34CC5CC(CC(C5)C3)C4)[C@]3(CC[C@@](C)([C@H]4CC[C@](O)(CC)[C@H](C)O4)O3)O2)[C@H](C)C[C@@H]1C	18.7	55	0.24	–
CCCCCCCCCC(=O)O[C@H]1C=C[C@]2(O[C@H]([C@@H](CC)C(=O)[C@@H](C)[C@@H](O)[C@H](C)[C@@H]3O[C@@H]([C@@H](CC)C(=O)O)CC[C@@H]3C)[C@@H](C)C[C@H]2C)O[C@@]12CC[C@@](C)([C@H]1CC[C@](O)(CC)[C@H](C)O1)O2	5.97	165	2.48	Active

— ChEMBL document CHEMBL4732069, “Singly and doubly modified analogues of C20-epi-salinomycin: A new group of antiparasitic agents against Trypanosoma brucei” (Eur J Med Chem, 2021)
